According to ChEMBL document CHEMBL6115051, “Design of Novel Mercapto-3-phenylpropanoyl Dipeptides as Dual Angiotensin-Converting Enzyme C-Domain-Selective/Neprilysin Inhibitors” (J Med Chem, 2025):

Legend:
Neprilysin = Neprilysin (Homo sapiens, UniProt P08473); assay: Inhibition of human NEP ectodomain using MCA-RPPGFSAFK-(Dnp)-OH peptide as substrate by continuous activity assay
Homo sapiens = organism: Homo sapiens; assay: Selectivity factor, ratio of IC50 for human glycosylated nACE to IC50 for human glycosylated cACE
[1] = target: T1, Angiotensin-converting enzyme (Homo sapiens, UniProt P12821); assay: Inhibition of human glycosylated C-terminal catalytic ACE domain using Cbz-Phe-His-Leu substrate by fluorogenic end point activity assay
T1 sequence (P12821 whole entry, the tested form may be a part): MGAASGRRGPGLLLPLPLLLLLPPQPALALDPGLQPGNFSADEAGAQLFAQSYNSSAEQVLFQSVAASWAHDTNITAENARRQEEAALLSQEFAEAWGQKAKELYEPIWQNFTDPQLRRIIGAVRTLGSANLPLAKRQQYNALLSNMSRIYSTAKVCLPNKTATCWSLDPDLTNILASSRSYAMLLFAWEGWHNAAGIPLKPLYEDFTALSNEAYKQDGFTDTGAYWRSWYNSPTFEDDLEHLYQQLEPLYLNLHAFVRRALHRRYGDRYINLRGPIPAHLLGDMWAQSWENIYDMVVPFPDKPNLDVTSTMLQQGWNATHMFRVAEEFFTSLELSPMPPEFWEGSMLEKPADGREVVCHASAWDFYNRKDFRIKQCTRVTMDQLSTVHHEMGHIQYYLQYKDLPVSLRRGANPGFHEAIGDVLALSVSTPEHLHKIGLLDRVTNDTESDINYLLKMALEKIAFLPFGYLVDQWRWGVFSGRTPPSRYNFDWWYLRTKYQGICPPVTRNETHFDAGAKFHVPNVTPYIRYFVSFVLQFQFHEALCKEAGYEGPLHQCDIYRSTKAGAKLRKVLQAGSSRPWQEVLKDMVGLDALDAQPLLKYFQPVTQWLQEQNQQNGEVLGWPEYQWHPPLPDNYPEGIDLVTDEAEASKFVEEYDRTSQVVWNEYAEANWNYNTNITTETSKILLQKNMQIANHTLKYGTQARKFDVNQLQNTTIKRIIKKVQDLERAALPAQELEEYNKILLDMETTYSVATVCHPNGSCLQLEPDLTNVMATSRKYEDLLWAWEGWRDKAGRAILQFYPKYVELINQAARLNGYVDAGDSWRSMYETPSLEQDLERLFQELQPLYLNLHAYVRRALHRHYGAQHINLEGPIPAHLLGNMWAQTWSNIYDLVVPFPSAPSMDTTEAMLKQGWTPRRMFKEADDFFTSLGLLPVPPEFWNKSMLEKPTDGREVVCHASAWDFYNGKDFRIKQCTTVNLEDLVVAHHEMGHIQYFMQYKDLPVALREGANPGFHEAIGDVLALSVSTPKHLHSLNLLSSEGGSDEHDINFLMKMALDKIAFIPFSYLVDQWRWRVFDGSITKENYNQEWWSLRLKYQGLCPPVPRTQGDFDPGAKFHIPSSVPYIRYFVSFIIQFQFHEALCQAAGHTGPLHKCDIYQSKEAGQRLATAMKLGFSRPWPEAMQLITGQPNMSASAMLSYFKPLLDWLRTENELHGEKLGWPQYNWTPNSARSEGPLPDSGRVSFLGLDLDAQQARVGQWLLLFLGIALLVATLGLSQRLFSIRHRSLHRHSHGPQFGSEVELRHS

[2] = target: T1, Angiotensin-converting enzyme; assay: Inhibition of human glycosylated N-terminal catalytic ACE domain using Cbz-Phe-His-Leu substrate by fluorogenic end point activity assay

Neprilysin, sequence (P08473 whole entry, the tested form may be a part): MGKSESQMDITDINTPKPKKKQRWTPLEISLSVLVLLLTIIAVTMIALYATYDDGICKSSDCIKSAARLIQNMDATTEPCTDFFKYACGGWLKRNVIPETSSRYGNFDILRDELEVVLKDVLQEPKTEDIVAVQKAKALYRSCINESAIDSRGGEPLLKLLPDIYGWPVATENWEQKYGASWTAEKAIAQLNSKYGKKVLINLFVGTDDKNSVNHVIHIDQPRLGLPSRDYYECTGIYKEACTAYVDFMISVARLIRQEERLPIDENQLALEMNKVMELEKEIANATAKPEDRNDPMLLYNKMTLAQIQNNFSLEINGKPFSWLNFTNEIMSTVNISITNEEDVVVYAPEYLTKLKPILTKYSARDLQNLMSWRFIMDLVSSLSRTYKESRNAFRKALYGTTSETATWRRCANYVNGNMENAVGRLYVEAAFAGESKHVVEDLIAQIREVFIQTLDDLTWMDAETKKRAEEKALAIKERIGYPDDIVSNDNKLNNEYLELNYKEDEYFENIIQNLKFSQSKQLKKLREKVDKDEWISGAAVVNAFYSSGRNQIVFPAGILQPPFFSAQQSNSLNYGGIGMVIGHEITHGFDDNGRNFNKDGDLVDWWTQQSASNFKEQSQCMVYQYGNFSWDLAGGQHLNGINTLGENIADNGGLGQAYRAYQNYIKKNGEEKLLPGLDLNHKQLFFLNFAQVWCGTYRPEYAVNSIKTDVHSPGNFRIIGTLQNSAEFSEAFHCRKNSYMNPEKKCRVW

IC50 (Neprilysin) [µM] | Ratio IC50 (Homo sapiens) | IC50 [1] [µM] | IC50 [2] [µM] | SMILES
> 100 | 1.5 | 4.1 | 6 | Cc1ccc([C@H]2CC[C@@H](C(=O)O)N2C(=O)CN[C@@H](CCc2ccccc2)C(=O)O)cc1
> 250 | 39 | 0.08 | 3.1 | NCCCC[C@H](N[C@@H](CCc1ccccc1)C(=O)O)C(=O)N[C@@H](Cc1c[nH]c2ccccc12)C(=O)O
 |  | 0.007 |  | NCCCC[C@H](NC(=O)[C@@H](S)Cc1ccccc1)C(=O)N[C@@H](Cc1c[nH]c2ccccc12)C(=O)O
 |  | 0.009 |  | O=C(NCC(=O)N1[C@@H](c2cccc(O)c2)CC[C@H]1C(=O)O)[C@@H](S)Cc1ccc(O)cc1
